# Entries after “also recorded” stand apart in the source; their conditions may differ.
# Key:
# EH-1 gene [1] = assay: EH-1 gene expression in tobacco suspension cells treated with auxins; format: cell-based; conditions: 100 μM, hormone-free medium 2 days, 0-12 h
# Protocol: (§1) FIG. 12A: tobacco leaves were injected with water or 1 mM SA, INA or 4HBA. Samples were harvested at the times indicated and total RNA was extracted from treated tissue. Ten μg of RNA was loaded in each lane. FIG. 12B: quantification of EH-1 transcripts corresponding to the data from FIG. 12A. The method of quantification is described in FIG. 9. The experiments were done twice. FIG. 12C: cell cultures were subcultured for 2 days in hormone-free medium to deplete hormones. Water, 2,4-D or IAA were then added to the media at 100 μM. Cells were collected at the times indicated.
# (§2) Cell suspension was treated with auxins as described by Xiang et al (1996). Cell cultures were grown in hormone-free medium for 2 days to deplete hormones in the medium. IAA (100 μM) and 2,4-D (100 μM) were added to the suspension. Cells were harvested at 0, 2, 6 and 12 h after addition of auxins. Water was added to the control.
# (§3) Total RNA was isolated from tobacco tissue by phenol/chloroform as described in Example 1. Ten micrograms of total RNA was analyzed by electrophoresis in a 1.2% agarose gel containing formaldehyde and blotted to Nytran Plus membranes (Schleicher and Schuell). Blots were hybridized with [alpha-^32P]dCTP-labeled probes prepared by the random-priming method with a oligo labelling kit (Pharmacia). […] Following autoradiography, mRNA levels were quantitated using a Phosphorimager (Molecular Dynamics).
# [2] = test system: auxin-inducible glutathione S-transferase gene, GNT35; assay: GNT35 gene expression in tobacco suspension cells treated with auxins (positive control); format: cell-based; conditions: 100 μM, hormone-free medium 2 days
# Protocol: as §1, §2, §3
# Arabidopsis sEH gene = conditions: in vivo; cited from earlier work
# [3] = test system: seven groups of SIS genes (ACCO, ACCD, HMGR, APX, PR-3, SAR8.2, PAR-1); assay: Northern analysis of SIS gene expression in tobacco leaves injected with chemicals; format: in vivo, Nicotiana tabacum cv. Xanthi nc; conditions: 1 mM injected into leaf
# Protocol: (§4) One leaf on each plant was injected with water, 1 mM of SA, INA or 4-hydroxybenzoic acid (4HBA). At the times indicated, injected leaves from two similarly treated plants (˜5 g tissue) were harvested and total RNA was extracted. Ten μg of RNA was loaded in each lane. The experiment with all ten probes was done twice.
# Tobacco (Nicotiana tabacum cv. Xanthi nc) plants and NahG-10 seeds, kindly provided by John Ryals at Novartis, Research Triangle, NC, were grown at 20° C. in a growth room with a 14-h day cycle. Two upper, fully expanded leaves of 6-8 week-old plants were infected with TMV strain U1 at a concentration of 1 μg/ml in 50 mM phosphate buffer (pH 7.2) containing carborundum. Control plants were treated with phosphate buffer and carborundum only. Inoculated plants were maintained in a 22° C. growth chamber until harvesting. In temperature shift experiments, plants were immediately put into a 32° C. growth chamber after infection with TMV. After a 48 h incubation period, the temperature was shifted from 32° C. to 22° C.
# (§5) SA and its analog 4-hydroxybenzoic acid were purchased from Sigma. INA was provided by Uwe Conrath and Heinrich Kauss at Universitat Kaiserslautern, Germany. All chemicals were dissolved in water and adjusted a pH of 6.5 with NaOH. They were injected into plants at a concentration of 1 mM. Control plants were injected with distilled water.
# (§6) Infected leaves were harvested and frozen in liquid nitrogen and stored at −80° C. until RNA extraction. Total RNA was extracted by phenol/chloroform essentially as described by Berry et al. (1985) with some modifications on the extraction buffer (50 mM Tris.HCl, pH8.0, 20 mM EDTA, 100 mM NaCl, and 2% SDS). For RNA blots, 10 μg of total RNA was loaded in each lane. RNA was separated on 1.2% agarose gels containing 18% formaldehyde and transferred to a Nytran Plus membrane (Schleicher and Schuell, Inc., Keene, N.H.). RNA was fixed to the membrane by cross-linking with UV light and then baked at 80° C. for 2 h. Prehybridization and hybridization were performed at 60° C. in 0.5M phosphate buffer (pH 7.2), containing 1% BSA, 7% SDS, and 1 mM EDTA (Church and Gilbert, 1984). The membranes were washed twice in 2×SSC at room temperature for 10 min each, twice in 2×SSC containing 0.5% SDS at 65° C. for 30 min, and twice in 0.1×SSC at room temperature for 30 min each. The probes were prepared from linearized DNA fragments and labeled with ^32p using the random-prime labeling method (Feinberg and Vogelstein, 1984). The PR-1a DNA clone was previously isolated in our lab and the tobacco PAL DNA clone was kindly provided by Michel Legrand and Bernard Fritig, Centre National de la Recherche Scientifique, Strasbourg, France.
# PR-1 genes = assay: Northern analysis of PR-1 gene expression in tobacco leaves injected with chemicals; format: in vivo, Nicotiana tabacum cv. Xanthi nc; conditions: for induction of PR-1 genes (in words): exogenous treatment of tobacco
# Protocol: as §4, §5, §6
# (§7) 2,4-D, […], and its analog 4HBA were purchased from Sigma. IAA was purchased from GIBCO BRL. INA was provided by Uwe Conrath at Universitat Kaiserslautern, Germany. SA, 4HBA and INA were dissolved in water and adjusted to […] pH of 6.5. They were injected into plants at a concentration of 1 mM with a needle-less syringe. Control plants were injected with distilled water. IAA and 2,4-D was dissolved in 0.2% ethanol.
# as §3, with “Schuell).” for “Schuell). Blots were hybridized with [alpha-^32P]dCTP-labeled probes prepared by the random-priming method with a oligo labelling kit (Pharmacia).”
# PAL genes = assay: Northern analysis of PAL gene expression in tobacco leaves injected with chemicals; format: in vivo, Nicotiana tabacum cv. Xanthi nc; conditions: 1 mM injected into leaf
# Protocol: as §4, §5
# Infected leaves were harvested and frozen in liquid nitrogen and stored at −80° C. until RNA extraction. Total RNA was extracted by phenol/chloroform essentially as described by Berry et al. (1985) with some modifications on the extraction buffer (50 mM Tris.HCl, pH8.0, 20 mM EDTA, 100 mM NaCl, and 2% SDS). For RNA blots, 10 μg of total RNA was loaded in each lane. RNA was separated on 1.2% agarose gels containing 18% formaldehyde and transferred to a Nytran Plus membrane (Schleicher and Schuell, Inc., Keene, N.H.). RNA was fixed to the membrane by cross-linking with UV light and then baked at 80° C. for 2 h. […]
# fungal pathogen = conditions: cited from earlier work; for effectiveness at protecting / inducing resistance to fungal infection in barley: highly susceptible barley cultivar
# potato suspension cells = conditions: cited from earlier work
# EH-1 gene [4] = assay: EH-1 gene expression in tobacco leaves injected with chemicals; format: in vivo, Nicotiana tabacum; conditions: 1 mM injected into leaf
# Protocol: as §1, §7
# as §3, with “Schuell).” for “Schuell). Blots were hybridized with [alpha-^32P]dCTP-labeled probes prepared by the random-priming method with a oligo labelling kit (Pharmacia).”
compound,measurement,setting,value
"O=C(O)Cc1c[nH]c2ccccc12 [IAA, indole-3-acetic acid]",induction of EH-1 expression (in words),EH-1 gene [1],Little or no induction
same,induction of GNT35 expression (in words),[2],rapidly induced
same,induction of Arabidopsis sEH gene,Arabidopsis sEH gene,induced by auxins
"O=C(O)c1ccccc1O [SA, salicylic acid]",activation of the seven groups of SIS genes (in words),[3],induced their expression transiently; also recorded: rapid and transient activation of six of the seven groups
same,time post treatment by which SIS mRNA levels had declined,[3],≤ 24 h
same,time post treatment by which mRNA levels for all SIS genes had peaked,[3],≤ 12 h
same,time after injection by which six of the seven groups of SIS genes were induced,[3]; Northern blot,4 to 6 h
same,time after treatment at which increased expression of PAR-1 was detected,[3]; this experiment,12 h
same,time post treatment at which PR-1 mRNAs were first detected,"PR-1 genes; 1 mM injected into leaf, Example 1",12 h
same,time post treatment at which PR-1 transcripts were first detected,"PR-1 genes; 1 mM injected into leaf, Example 2",12 h
same,induction of PR-1 genes (in words),PR-1 genes,slow and sustained
same,induction of PAL gene expression (in words),PAL genes,"little, if any, induction of PAL; also recorded: neither SA nor INA can induce PAL gene expression"
"O=C(O)c1ccc(O)cc1 [4HBA, 4-hydroxybenzoic acid]",activation of the seven groups of SIS genes (in words),[3],failed to activate these genes
"O=C(O)COc1ccc(Cl)cc1Cl [2,4-D, 2,4-dichlorophenoxy acetic acid]",induction of EH-1 expression (in words),EH-1 gene [1],Little or no induction
same,induction of GNT35 expression (in words),[2],rapidly induced
same,induction of Arabidopsis sEH gene,Arabidopsis sEH gene,induced by auxins
"O=C(O)CCCCCCCC1OC1CCCCCCCCO (stereo not drawn) [HESA, cis-9,10-epoxy-18-hydroxystearic acid]",effectiveness at protecting / inducing resistance to fungal infection in barley,fungal pathogen,most effective
same,alkalinization of media,potato suspension cells,caused the rapid alkalinization
"O=C(O)CCCCCCCC(O)C(O)CCCCCCCCO (stereo not shown) [9,10,18-trihydroxystearic acid]",effectiveness at protecting / inducing resistance to fungal infection in barley,fungal pathogen,nearly as effective
same,toxicity relative to HESA,fungal pathogen; in vivo,less toxic than HESA
same,alkalinization of media,potato suspension cells,to a lesser extent than HESA
"O=C(O)c1cc(Cl)nc(Cl)c1 [INA, 2,6-dichloroisonicotinic acid]",activation of the seven groups of SIS genes (in words),[3],"induced by INA, generally in a transient manner; also recorded: rapid and transient activation of six of the seven groups"
same,induction of PR-1 genes (in words),PR-1 genes,slow and sustained
same,induction of PAL gene expression (in words),PAL genes,neither SA nor INA can induce PAL gene expression
same,EH-1 transcript accumulation (in words),EH-1 gene [4],induced a transient accumulation of EH-1 transcripts; also recorded: accumulate rapidly and transiently
